In ChEMBL document CHEMBL1201862, “PubChem BioAssay data set” (2004):
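Test compounds were applied to cells in 96-well plates for 48 hours at 5 doses. GI50 is the concentration that inhibits growth by half.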 Activity calls are given as the source filed them. Rule as the data show it: active = GI50 up to about 1.1 µM and inactive = higher.

What was measured:
Assay in all cases: NCI-60 cell line screen, 48 h
COLO 205 = system: COLO 205
M14 = system: M14
SK-MEL-2 = system: SK-MEL-2
SF-268 = system: SF-268
SW-620 = system: SW-620
SN12C = system: SN12C
HOP-62 = system: HOP-62
786-0 = system: 786-0
UACC-257 = system: UACC-257
A549 = system: A549
SNB-75 = system: SNB-75
ACHN = system: ACHN
OVCAR-5 = system: OVCAR-5
TK-10 = system: TK-10
SF-539 = system: SF-539
Malme-3M = system: Malme-3M
MDA-MB-435 = system: MDA-MB-435
IGROV-1 = system: IGROV-1
EKVX = system: EKVX
PC-3 = system: PC-3
HT-29 = system: HT-29
HOP-92 = system: HOP-92
SNB-19 = system: SNB-19
MDA-N = system: MDA-N
RXF 393 = system: RXF 393
U-251 = system: U-251
NCI-H522 = system: NCI-H522
SK-OV-3 = system: SK-OV-3
SR = system: SR
K562 = system: K562
LOX IMVI = system: LOX IMVI
HCT-116 = system: HCT-116
A498 = system: A498
MOLT-4 = system: MOLT-4
UACC-62 = system: UACC-62
MDA-MB-231 = system: MDA-MB-231
HCC 2998 = system: HCC 2998
OVCAR-3 = system: OVCAR-3
Hs-578T = system: Hs-578T
NCI/ADR-RES = system: NCI/ADR-RES
NCI-H226 = system: NCI-H226
SF-295 = system: SF-295
CCRF-CEM = system: CCRF-CEM
UO-31 = system: UO-31
DU-145 = system: DU-145
OVCAR-8 = system: OVCAR-8
SK-MEL-5 = system: SK-MEL-5
RPMI-8226 = system: RPMI-8226
MCF7 = system: MCF7
KM12 = system: KM12
SK-MEL-28 = system: SK-MEL-28
NCI-H23 = system: NCI-H23
OVCAR-4 = system: OVCAR-4
BT-549 = system: BT-549
T47D = system: T47D
CAKI-1 = system: CAKI-1
HCT-15 = system: HCT-15
NCI-H460 = system: NCI-H460

## O=C(O)c1nc(-c2ccccc2)[nH]c1C(=O)O
COLO 205
  GI50: 17 µM (inactive)
M14
  GI50: 10.9 µM (inactive)
SK-MEL-2
  GI50: 7.76 µM (inactive)
SF-268
  GI50: 16 µM (inactive)
SW-620
  GI50: 2.47 µM (inactive)
SN12C
  GI50: 13.6 µM (inactive)
HOP-62
  GI50: 16 µM (inactive)
786-0
  GI50: 10.6 µM (inactive)
UACC-257
  GI50: 16.6 µM (inactive)
A549
  GI50: 14 µM (inactive)
SNB-75
  GI50: 19.4 µM (inactive)
ACHN
  GI50: 16.8 µM (inactive)
OVCAR-5
  GI50: 17.2 µM (inactive)
TK-10
  GI50: 15.5 µM (inactive)
SF-539
  GI50: 7.8 µM (inactive)
Malme-3M
  GI50: 15.3 µM (inactive)
MDA-MB-435
  GI50: 8.87 µM (inactive)
IGROV-1
  GI50: 11.7 µM (inactive)
EKVX
  GI50: 17.4 µM (inactive)
PC-3
  GI50: 5.32 µM (inactive)
HT-29
  GI50: 7.03 µM (inactive)
HOP-92
  GI50: 16.3 µM (inactive)
SNB-19
  GI50: 12.5 µM (inactive)
MDA-N
  GI50: 11.8 µM (inactive)
RXF 393
  GI50: 13.5 µM (inactive)
U-251
  GI50: 4.18 µM (inactive)
NCI-H522
  GI50: 13.1 µM (inactive)
SK-OV-3
  GI50: 18.4 µM (inactive)
SR
  GI50: 0.0188 µM (active)
K562
  GI50: 3.72 µM (inactive)
LOX IMVI
  GI50: 3.01 µM (inactive)
HCT-116
  GI50: 4.43 µM (inactive)
A498
  GI50: 15.4 µM (inactive)
MOLT-4
  GI50: 1.04 µM (active)
UACC-62
  GI50: 17.2 µM (inactive)
MDA-MB-231
  GI50: 5.62 µM (inactive)
HCC 2998
  GI50: 5.94 µM (inactive)
OVCAR-3
  GI50: 11.8 µM (inactive)
Hs-578T
  GI50: 24.8 µM (inactive)
NCI/ADR-RES
  GI50: 27.7 µM (inactive)
NCI-H226
  GI50: 14.8 µM (inactive)
SF-295
  GI50: 16.7 µM (inactive)
CCRF-CEM
  GI50: 0.577 µM (active)
UO-31
  GI50: 12.1 µM (inactive)
DU-145
  GI50: 15 µM (inactive)
OVCAR-8
  GI50: 14.1 µM (inactive)
SK-MEL-5
  GI50: 15.1 µM (inactive)
RPMI-8226
  GI50: 1.84 µM (inactive)
MCF7
  GI50: 2.32 µM (inactive)
KM12
  GI50: 4.65 µM (inactive)
SK-MEL-28
  GI50: 16.6 µM (inactive)
NCI-H23
  GI50: 13.9 µM (inactive)
OVCAR-4
  GI50: 16.8 µM (inactive)
BT-549
  GI50: 17.4 µM (inactive)
T47D
  GI50: 15.3 µM (inactive)
CAKI-1
  GI50: 14.4 µM (inactive)
HCT-15
  GI50: 14.3 µM
NCI-H460
  GI50: 15.4 µM (inactive)
